# Entries after “also recorded” stand apart in the source; their conditions may differ.
# Columns and labels:
# human squamous carcinoma = conditions: nude mice bearing a human squamous carcinoma; cited from earlier work
# DNA of tumor cells [1] = conditions: background statement; cited from earlier work
# DNA of tumor cells [2] = assay: DNA binding of platinum compounds; conditions: for DNA binding: pH 6.8 (solid tumor pH norm)
# Text: ^195mPlatinum is cytotoxic by its release of “auger” electron at 33/disintegrations and with a half-life of over 4 days. In order to amplify the cytotoxicity of the tumor cells, the final drug radioactive thioplatin must be located on the DNA of tumor cells. […] Radioactive thioplatin can be quantitated in the clinic by nuclear SPECT scanning of the tumor and normal tissues for low-energy photons (65-129 kev) emitted by radioactive platinum.
# [3] = Normal tissue toxicity in experimental animals (body weight, white blood cells, BUN, histopathology/biopsy of kidney and intestine); type: in vivo
# Procedure: Thioplatin administered to experimental animals was assayed for the effects of the drug on body weight, white blood cells, BUN and histophathology of kidneys and small intestines.
# [4] = test system: human lung and colon cancer; assay: Tumor cytotoxicity in human tumor xenografts in nude mice; type: in vivo
# [5] = background statement; cited from earlier work
Compound,"antitumor effect (tumor growth delay, log of tumor growth, area under the curve) (human squamous carcinoma)",binding of DNA (DNA of tumor cells [1]) [nanograms/milligrams],DNA binding (DNA of tumor cells [2]),effect on BUN ([3]; experimental animals),effect on body weight ([3]; experimental animals),effect on white blood cells ([3]; experimental animals),histopathology of kidneys and small intestines ([3]; experimental animals),"normal tissue toxicity compared to cisplatin ([3]; human tumor xenografts in nude mice, compared to the standard cisplatin)","tumor cytotoxicity ([4]; human tumor xenografts in nude mice, human lung and colon cancer)",pH dependence of cytotoxicity ([4]; tumor pH 6.8 versus normal pH 7.2 to 7.4),"DNA binding relative to cisplatin (DNA of tumor cells [2]; background statement, compared to cisplatin)",peripheral toxicity by direct biopsy of the kidney and intestinal tract [5]
N.N.[Cl][191Pt][Cl] [^191cisplatin],cytotoxic to the tumor,–,–,–,–,–,–,–,–,–,–,–
N.N.[Cl][Pt][Cl] [cisplatin],–,14.3,14.6 ng/mg,–,–,–,–,–,–,–,–,–
thioplatin,–,–,"13,870 ng/mg",negligible,negligible,negligible,negligible,reduced normal tissue toxicity,cytotoxic to human lung and colon cancer; also recorded: significant tumor cytotoxicity,most effective at an acidic pH,one-thousand,lack of normal tissue toxicity

# — patent publication US20030228253A1, “Radiolabelled thioplatin, compositions thereof and methods of cancer treatment” (priority 2002, published 2003)
